Laboratory results published in PubChem BioAssay AID1259407 (Chemical Carcinogenesis Research Information System (CCRIS), 2018).
Calls of active or inactive are those of the source. No rule for the calls is given here.

Test system: CCRIS mutagenicity, Ames/micronucleus/aberration tests
Test: CCRIS mutagenicity studies
[1] = Test System: AMES SALMONELLA TYPHIMURIUM, Strain/Indicator: TA98, Metabolic Activation: NONE, Method: PREINCUBATION
[2] = Test System: AMES SALMONELLA TYPHIMURIUM, Strain/Indicator: TA100, Metabolic Activation: NONE, Method: PREINCUBATION
[3] = Test System: AMES SALMONELLA TYPHIMURIUM, Strain/Indicator: TA1535, Metabolic Activation: NONE, Method: PREINCUBATION
[4] = Test System: AMES SALMONELLA TYPHIMURIUM, Strain/Indicator: TA98, Metabolic Activation: NONE, Method: STANDARD PLATE
[5] = Test System: AMES SALMONELLA TYPHIMURIUM, Strain/Indicator: TA100, Metabolic Activation: NONE, Method: STANDARD PLATE

Measured: mutagenic call

C[N+](C)(C)CCO
inactive: [1] inactive; negative | Test System: AMES SALMONELLA TYPHIMURIUM, Strain/Indicator: TA98, Metabolic Activation: RAT, LIVER, S-9, PHENOBARBITAL AND BETA-NAPHTHOFLAVONE, Method: PREINCUBATION inactive; negative | [2] inactive; negative | Test System: AMES SALMONELLA TYPHIMURIUM, Strain/Indicator: TA100, Metabolic Activation: RAT, LIVER, S-9, PHENOBARBITAL AND BETA-NAPHTHOFLAVONE, Method: PREINCUBATION inactive; negative | Test System: AMES SALMONELLA TYPHIMURIUM, Strain/Indicator: TA102, Metabolic Activation: NONE, Method: PREINCUBATION inactive; negative | Test System: AMES SALMONELLA TYPHIMURIUM, Strain/Indicator: TA102, Metabolic Activation: RAT, LIVER, S-9, PHENOBARBITAL AND BETA-NAPHTHOFLAVONE, Method: PREINCUBATION inactive; negative | Test System: AMES SALMONELLA TYPHIMURIUM, Strain/Indicator: TA104, Metabolic Activation: NONE, Method: PREINCUBATION inactive; negative | Test System: AMES SALMONELLA TYPHIMURIUM, Strain/Indicator: TA104, Metabolic Activation: RAT, LIVER, S-9, PHENOBARBITAL AND BETA-NAPHTHOFLAVONE, Method: PREINCUBATION inactive; negative | [3] inactive; negative | Test System: AMES SALMONELLA TYPHIMURIUM, Strain/Indicator: TA1535, Metabolic Activation: RAT, LIVER, S-9, PHENOBARBITAL AND BETA-NAPHTHOFLAVONE, Method: PREINCUBATION inactive; negative | Test System: AMES SALMONELLA TYPHIMURIUM, Strain/Indicator: TA1537, Metabolic Activation: NONE, Method: PREINCUBATION inactive; negative | Test System: AMES SALMONELLA TYPHIMURIUM, Strain/Indicator: TA1537, Metabolic Activation: RAT, LIVER, S-9, PHENOBARBITAL AND BETA-NAPHTHOFLAVONE, Method: PREINCUBATION inactive; negative | Test System: E. COLI, Strain/Indicator: WP2UVRA/PKM101, Metabolic Activation: NONE, Method: PREINCUBATION inactive; negative | Test System: E. COLI, Strain/Indicator: WP2UVRA/PKM101, Metabolic Activation: RAT, LIVER, S-9, PHENOBARBITAL AND BETA-NAPHTHOFLAVONE, Method: PREINCUBATION inactive; negative | Test System: E. COLI, Strain/Indicator: WP2UVRA, Metabolic Activation: NONE, Method: PREINCUBATION inactive; negative | Test System: E. COLI, Strain/Indicator: WP2UVRA, Metabolic Activation: RAT, LIVER, S-9, PHENOBARBITAL AND BETA-NAPHTHOFLAVONE, Method: PREINCUBATION inactive; negative

c1ccc2c(c1)CC[C@H]1CCC[C@@H]3O[C@]213
inactive: [4] inactive; negative | [5] inactive; negative

O=c1ccn([C@H]2C[C@H](O)[C@@H](CO)O2)c(=O)[nH]1
inactive: Test System: AMES SALMONELLA TYPHIMURIUM, Strain/Indicator: TA97, Metabolic Activation: NONE, Method: PREINCUBATION inactive; negative | Test System: AMES SALMONELLA TYPHIMURIUM, Strain/Indicator: TA97, Metabolic Activation: RAT, LIVER, S-9, AROCLOR 1254, Method: PREINCUBATION inactive; negative | [2] inactive; negative | Test System: AMES SALMONELLA TYPHIMURIUM, Strain/Indicator: TA100, Metabolic Activation: RAT, LIVER, S-9, AROCLOR 1254, Method: PREINCUBATION inactive; negative | Test System: CHINESE HAMSTER V-79, Strain/Indicator: V-79/8-AZAGUANINE, Metabolic Activation: NONE inactive; negative

NC(=O)c1ccc(N)nc1
inactive: Test System: CHINESE HAMSTER OVARY, Strain/Indicator: CHO/6-THIOGUANINE, Metabolic Activation: NONE inactive; negative | Test System: CHINESE HAMSTER OVARY, Strain/Indicator: CHO/6-THIOGUANINE, Metabolic Activation: RAT, LIVER, S-9 inactive; negative | Test System: CHINESE HAMSTER OVARY, Strain/Indicator: CHO/OUABAIN, Metabolic Activation: NONE inactive; negative | Test System: CHINESE HAMSTER OVARY, Strain/Indicator: CHO/OUABAIN, Metabolic Activation: RAT, LIVER, S-9 inactive; negative

CCCNNCCC
active: Test System: AMES SALMONELLA TYPHIMURIUM, Strain/Indicator: TA100, Metabolic Activation: NONE, Method: PREINCUBATION (11 HR GROWTH PERIOD FOR BACTERIA) active; positive | Test System: AMES SALMONELLA TYPHIMURIUM, Strain/Indicator: TA102, Metabolic Activation: NONE, Method: PREINCUBATION (5 OR 7 HR GROWTH PERIOD FOR BACTERIA) active; positive | Test System: AMES SALMONELLA TYPHIMURIUM, Strain/Indicator: TA102, Metabolic Activation: RAT, LIVER, S-9, PCB, Method: PREINCUBATION (5 OR 7 HR GROWTH PERIOD FOR BACTERIA) active; positive
inactive: Test System: AMES SALMONELLA TYPHIMURIUM, Strain/Indicator: TA100, Metabolic Activation: RAT, LIVER, S-9, PCB, Method: PREINCUBATION (11 HR GROWTH PERIOD FOR BACTERIA) inactive; negative

CCCCCCCOc1ccccc1NC(=O)OCCN1CCCCC1
inactive: Test System: AMES SALMONELLA TYPHIMURIUM, Strain/Indicator: TA98, Metabolic Activation: MOUSE, LIVER, S-9, AROCLOR 1254, Method: PREINCUBATION inactive; negative | [1] inactive; negative | Test System: AMES SALMONELLA TYPHIMURIUM, Strain/Indicator: TA100, Metabolic Activation: MOUSE, LIVER, S-9, AROCLOR 1254, Method: PREINCUBATION inactive; negative | [2] inactive; negative | Test System: AMES SALMONELLA TYPHIMURIUM, Strain/Indicator: TA1535, Metabolic Activation: MOUSE, LIVER, S-9, AROCLOR 1254, Method: PREINCUBATION inactive; negative | [3] inactive; negative | Test System: AMES SALMONELLA TYPHIMURIUM, Strain/Indicator: TA1538, Metabolic Activation: MOUSE, LIVER, S-9, AROCLOR 1254, Method: PREINCUBATION inactive; negative | Test System: AMES SALMONELLA TYPHIMURIUM, Strain/Indicator: TA1538, Metabolic Activation: NONE, Method: PREINCUBATION inactive; negative | Test System: AMES SALMONELLA TYPHIMURIUM, Strain/Indicator: TA1978, Metabolic Activation: MOUSE, LIVER, S-9, AROCLOR 1254, Method: PREINCUBATION inactive; negative | Test System: AMES SALMONELLA TYPHIMURIUM, Strain/Indicator: TA1978, Metabolic Activation: NONE, Method: PREINCUBATION inactive; negative | Test System: E. COLI, Strain/Indicator: CM611 UVRA/LEXA, Metabolic Activation: MOUSE, LIVER, S-9, AROCLOR 1254, Method: PREINCUBATION inactive; negative | Test System: E. COLI, Strain/Indicator: CM611 UVRA/LEXA, Metabolic Activation: NONE, Method: PREINCUBATION inactive; negative | Test System: E. COLI, Strain/Indicator: WP2, Metabolic Activation: MOUSE, LIVER, S-9, AROCLOR 1254, Method: PREINCUBATION inactive; negative | Test System: E. COLI, Strain/Indicator: WP2, Metabolic Activation: NONE, Method: PREINCUBATION inactive; negative | Test System: E. COLI, Strain/Indicator: WP2 UVRA, Metabolic Activation: MOUSE, LIVER, S-9, AROCLOR 1254, Method: PREINCUBATION inactive; negative | Test System: E. COLI, Strain/Indicator: WP2 UVRA, Metabolic Activation: NONE, Method: PREINCUBATION inactive; negative | Test System: E. COLI, Strain/Indicator: WP67 UVRA/POLA, Metabolic Activation: MOUSE, LIVER, S-9, AROCLOR 1254, Method: PREINCUBATION inactive; negative | Test System: E. COLI, Strain/Indicator: WP67 UVRA/POLA, Metabolic Activation: NONE, Method: PREINCUBATION inactive; negative

Cc1cc2nc3ccc(C)c(N)c3nc2cc1N
active: Test System: AMES SALMONELLA TYPHIMURIUM, Strain/Indicator: TA98, Metabolic Activation: RAT, LIVER, S-9, PCB, Method: PREINCUBATION active; positive
inactive: [1] inactive; negative

COc1c(Cl)ccc2oc3cc4c(c(OC)c3c(=O)c12)[C@@H]1C=CO[C@@H]1O4
inactive: [4] inactive; negative
active: Test System: AMES SALMONELLA TYPHIMURIUM, Strain/Indicator: TA98, Metabolic Activation: RAT, LIVER, S-9, AROCLOR 1254, Method: STANDARD PLATE active; positive | [5] active; positive | Test System: AMES SALMONELLA TYPHIMURIUM, Strain/Indicator: TA100, Metabolic Activation: RAT, LIVER, S-9, AROCLOR 1254, Method: STANDARD PLATE active; positive
